Test results from patent US4950669A, “Methods and compositions for promoting growth of animals” (priority 1987, dated 1990).

What was measured:
[1] = rabbit, in vivo, ip, 100 mg/kg
[2] = pig growth study, intramuscular injection (Example X); type: in vivo; settings: pigs, 1 mg/kg i.m. every seven days
Procedure: N-morpholinyl-β-benzoylpropionamide (NMBP) was formulated as an injectable product at a concentration of 2% in polyethylene glycol. The formulation was administered to pigs by intramuscular injection at a dosage of 1 mg/kg, once every seven days. Pigs averaged 52.66 kg at initiation and were terminated at 90.8 kg. Control animals received no injections.

[3] = rat, in vivo, ip, 50 mg/kg
Procedure: Per os, in the mouse still, the LD50 is above 2000 mg/kg. In the rat, after i.p. treatment with 50 mg/kg there was, within 3 hours from administration, a maximum lowering of the body temperature of 0.6° in respect to the controls treated with the only suspending medium.

[4] = 70-day lamb study, oral or i.m. injection (Example XVII); type: in vivo, lambs
Procedure: A 70-day study was conducted in which N-morpholinyl-β-benzoyl-propionamide was administered to lambs by i.m. injection or by admixture with feed. In the case of oral administration, the N-morpholinyl-β-benzoyl-propionamide was mixed with the complete mixed ration at a level of 30 ppm.

[5] = hypotensive effect in the awake rabbit; type: in vivo; settings: same dosage (100 mg/kg) i.p.
[6] = acute toxicity (LD50) in the mouse; type: in vivo; settings: for LD50: in vivo
[7] = 21-day battery study in chickens (Example XIII); type: in vivo
Procedure: N-morpholinyl-β-benzoyl-propionamide was admixed with chicken feed at concentrations of 1.0 ppm, 7.5 ppm and 15 ppm. A 21-day battery study was conducted with the NMBP-containing feed. One group of controls was unmedicated, while a second control group received Bacitracin MD in its feed at 30 g/ton. The birds were fed ad libitum and weighed on days 7, 14 and 21. There were 10 birds per replication, 4 replications in controls and 2 replications per drug treatment.

[8] = Injection, 1.5 mg/kg i.m. every 2 weeks
[9] = Injection, 1.5 mg/kg i.m. every 2 weeks, Day 0-14
[10] = Injection, 1.5 mg/kg i.m. every 2 weeks, Day 0-28
[11] = Injection, 1.5 mg/kg i.m. every 2 weeks, Day 0-42
[12] = Injection, 1.5 mg/kg i.m. every 2 weeks, Day 0-56
[13] = Injection, 1.5 mg/kg i.m. every 2 weeks, Day 0-70
[14] = Injection, 1.5 mg/kg i.m. every 2 weeks, Day 15-28
[15] = Injection, 1.5 mg/kg i.m. every 2 weeks, Day 29-42
[16] = Injection, 1.5 mg/kg i.m. every 2 weeks, Day 43-56
[17] = Injection, 1.5 mg/kg i.m. every 2 weeks, Day 57-70

## O=C(CCC(=O)N1CCOCC1)c1ccccc1 [NMBP, N-morpholinyl-β-benzoyl-propionamide]
[1]
  electrocardiographic variations compared to the controls: no electrocardiographic variations
[2]
  improvement of average daily gain as compared with controls: about 10%
  improvement of feed-to-gain ratio as compared with controls: about 4%
[2]; control 0.867
  average daily gain (ADG): 0.958 kg
[2]; control 2.76
  average daily feed consumption (ADF): 2.96 kg
[2]; control 3.18
  feed-to-gain ratio (F/G): 3.03
[3]
  maximum lowering of the body temperature in respect to the controls: 0.6 °
[4]; Injection group, during the previous 2-week period, sacrificed on Day 55
  weight loss of one lamb: 10 pounds
[4]; Injection group, one lamb sacrificed on Day 55
  Necropsy of one lamb: chronic focal pneumonia
[4]; [8]
  Daily Gain, Period: .16 kilograms
  Weight, Final: 42.1 kilograms
[4]; Injection, 1.5 mg/kg i.m. every 2 weeks (baseline)
  Weight, Initial: 27.6 kilograms
[4]; [9]
  Daily Feed DM Consumption, Cumulative: 0.94 kilograms
  Daily Feed DM Consumption, Period: 0.94 kilograms
  Daily Gain, Cumulative: .23 kilograms
  Daily Gain, Period: .23 kilograms
  Feed DM/Gain, Cumulative: 4.09
  Feed DM/Gain, Period: 4.09
[4]; [10]
  Daily Feed DM Consumption, Cumulative: 1.00 kilograms
  Daily Gain, Cumulative: .22 kilograms
  Feed DM/Gain, Cumulative: 4.55
[4]; [11]
  Daily Feed DM Consumption, Cumulative: 1.05 kilograms
  Daily Gain, Cumulative: .22 kilograms
  Feed DM/Gain, Cumulative: 4.77
[4]; [12]
  Daily Feed DM Consumption, Cumulative: 1.06 kilograms
  Daily Gain, Cumulative: .22 kilograms
  Feed DM/Gain, Cumulative: 4.82
[4]; [13]
  Daily Feed DM Consumption, Cumulative: 1.11 kilograms
  Daily Gain, Cumulative: .21 kilograms
  Feed DM/Gain, Cumulative: 5.29
[4]; [14]
  Daily Feed DM Consumption, Period: 1.06 kilograms
  Daily Gain, Period: .21 kilograms
  Feed DM/Gain, Period: 5.05
[4]; [15]
  Daily Feed DM Consumption, Period: 1.14 kilograms
  Daily Gain, Period: .22 kilograms
  Feed DM/Gain, Period: 5.18
[4]; [16]
  Daily Feed DM Consumption, Period: 1.12 kilograms
  Daily Gain, Period: .22 kilograms
  Feed DM/Gain, Period: 5.09
[4]; [17]
  Daily Feed DM Consumption, Period: 1.29 kilograms
  Feed DM/Gain, Period: 8.06
[4]; Oral, 30 ppm
  Daily Gain, Period: .14 kilograms
  Weight, Final: 43.0 kilograms
[4]; Oral, 30 ppm (baseline)
  Weight, Initial: 28.1 kilograms
[4]; Oral, 30 ppm, Day 0-14
  Daily Feed DM Consumption, Cumulative: 1.05 kilograms
  Daily Feed DM Consumption, Period: 1.05 kilograms
  Daily Gain, Cumulative: .27 kilograms
  Daily Gain, Period: .27 kilograms
  Feed DM/Gain, Cumulative: 3.89
  Feed DM/Gain, Period: 3.89
[4]; Oral, 30 ppm, Day 0-28
  Daily Feed DM Consumption, Cumulative: 1.10 kilograms
  Daily Gain, Cumulative: .24 kilograms
  Feed DM/Gain, Cumulative: 4.58
[4]; Oral, 30 ppm, Day 0-42
  Daily Feed DM Consumption, Cumulative: 1.12 kilograms
  Daily Gain, Cumulative: .23 kilograms
  Feed DM/Gain, Cumulative: 4.87
[4]; Oral, 30 ppm, Day 0-56
  Daily Feed DM Consumption, Cumulative: 1.14 kilograms
  Daily Gain, Cumulative: .23 kilograms
  Feed DM/Gain, Cumulative: 4.96
[4]; Oral, 30 ppm, Day 0-70
  Daily Feed DM Consumption, Cumulative: 1.16 kilograms
  Daily Gain, Cumulative: .21 kilograms
  Feed DM/Gain, Cumulative: 5.52
[4]; Oral, 30 ppm, Day 15-28
  Daily Feed DM Consumption, Period: 1.16 kilograms
  Daily Gain, Period: .20 kilograms
  Feed DM/Gain, Period: 5.80
[4]; Oral, 30 ppm, Day 29-42
  Daily Feed DM Consumption, Period: 1.17 kilograms
  Daily Gain, Period: .22 kilograms
  Feed DM/Gain, Period: 5.32
[4]; Oral, 30 ppm, Day 43-56
  Daily Feed DM Consumption, Period: 1.19 kilograms
  Daily Gain, Period: .23 kilograms
  Feed DM/Gain, Period: 5.17
[4]; Oral, 30 ppm, Day 57-70
  Daily Feed DM Consumption, Period: 1.26 kilograms
  Feed DM/Gain, Period: 9.00
[5]
  hypotensive effect: not hypotensive
[6]; i.p.
  LD50, safe limits: 648 to 1363 mg/kg
[6]; ip
  LD50: 940 mg/kg
[6]; po, per os
  LD50: > 2000 mg/kg
[7]; feed 1 ppm, Day 7
  F/G: 1.38
  Weight Gain: 341 g
[7]; feed 1 ppm, Day 14
  F/G: 1.47
  Weight Gain: 715 g
[7]; feed 1 ppm, Day 21
  F/G: 1.62
  Weight Gain: 1152 g
[7]; feed 7.5 ppm, Day 7
  F/G: 1.40
  Weight Gain: 325 g
[7]; feed 7.5 ppm, Day 14
  F/G: 1.49
  Weight Gain: 697 g
[7]; feed 7.5 ppm, Day 21
  F/G: 1.60
  Weight Gain: 1113 g
[7]; feed 15 ppm, Day 7
  F/G: 1.42
  Weight Gain: 318 g
[7]; feed 15 ppm, Day 14
  F/G: 1.47
  Weight Gain: 688 g
[7]; feed 15 ppm, Day 21
  F/G: 1.54
  Weight Gain: 1164 g
